Columns and labels:
Danio rerio embryo [1] = assay: LEL larval photomotor response dark phase 120 hpf
Protocol: (§1)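 ZBEscreen: dechorionated Tropical 5D zebrafish embryos were exposed from 4 hpf in 96-well plates (1% DMSO, 28 °C). All compounds were first tested at 100 µM; hits were retested at 0.005-100 µM. Morphology and mortality were scored at 120 hpf and fitted as BMC10 (3-parameter log-logistic, extra risk). The embryonic photomotor response at 24 hpf and the larval photomotor response at 120 hpf are given as lowest effect levels (K-S test, p<0.01). NA = not significant up to 100 µM; NT = not tested.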

HL-60 = assay: Cell Health Index (toxicity pseudo-probability over dose series) (index 0-1); higher = more cytotoxic / cell stress;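 note: HL-60 cells exposed 4 h at 37 °C to ten threefold dilutions spanning 5 nM to 100 µM, multiparametric flow cytometry features scored by machine-learning classification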
Danio rerio embryo [2] = assay: BMC10 any morphological effect or mortality at 120 hpf; higher = less toxic
Danio rerio embryo [3] = assay: LEL embryonic photomotor response 24 hpf
Protocol: as §1

Q: For `O=C(O)CCCCC1CCSS1` (racemic) [DL-alpha-Lipoic acid], which “LEL larval photomotor response dark phase 120 hpf” value (Danio rerio embryo [1]) is on record?
A: > 100 µM

Q: What about the “Cell Health Index” value (HL-60) of the same compound?
A: 0.172

Q: And the “BMC10 any morphological effect or mortality” value (Danio rerio embryo [2])?
A: > 100 µM

Q: And the “LEL embryonic photomotor response 24 hpf” value (Danio rerio embryo [3])?
A: > 100 µM

Q: What does the source list for `C[C@@]1(O)[C@H](O)[C@@H](CO)O[C@H]1n1ccc(N)nc1=O` [2'-C-Methylcytidine]?
A: LEL larval photomotor response dark phase 120 hpf (Danio rerio embryo [1]): > 100 µM; Cell Health Index (HL-60): 0.129; BMC10 any morphological effect or mortality (Danio rerio embryo [2]): > 100 µM; LEL embryonic photomotor response 24 hpf (Danio rerio embryo [3]): > 100 µM

Q: `C=C1CC[C@@H]2[C@](C)(CO)[C@H](O)CC[C@@]2(C)[C@@H]1/C=C/C1=CCOC1=O` [14-deoxy-11,12-didehydro Andrographolide] was tested. Which “LEL larval photomotor response dark phase 120 hpf” value (Danio rerio embryo [1]) did it give?
A: > 100 µM

Q: What about the “Cell Health Index” value (HL-60) of the same compound?
A: 0.43

Q: And the “BMC10 any morphological effect or mortality” value (Danio rerio embryo [2])?
A: > 100 µM

Q: What about the “LEL embryonic photomotor response 24 hpf” value (Danio rerio embryo [3]) of the same compound?
A: 100 µM

Q: `O=C(O[C@@H]1Cc2c(O)cc(O)cc2O[C@H]1c1cc(O)c(O)c(O)c1)c1cc(O)c(O)c(O)c1` [(-)-Gallocatechin gallate] was tested. Which “LEL larval photomotor response dark phase 120 hpf” value (Danio rerio embryo [1]) did it give?
A: > 100 µM

Q: What about the “Cell Health Index” value (HL-60) of the same compound?
A: 0.859

Q: And the “BMC10 any morphological effect or mortality” value (Danio rerio embryo [2])?
A: > 100 µM

Q: What about the “LEL embryonic photomotor response 24 hpf” value (Danio rerio embryo [3]) of the same compound?
A: > 100 µM

Q: Which results are given for `CCOC(=O)[C@H]1O[C@@H]1C(=O)N[C@@H](CC(C)C)C(=O)NCCC(C)C` [Aloxistatin]?
A: LEL larval photomotor response dark phase 120 hpf (Danio rerio embryo [1]): > 100 µM; Cell Health Index (HL-60): 0.151; BMC10 any morphological effect or mortality (Danio rerio embryo [2]): 10.6 µM; LEL embryonic photomotor response 24 hpf (Danio rerio embryo [3]): 33.3 µM

Q: Which “LEL larval photomotor response dark phase 120 hpf” value (Danio rerio embryo [1]) does the source give for `Cl.Nc1c(Br)cc(Br)cc1CN[C@H]1CC[C@H](O)CC1` [Ambroxol] here?
A: > 100 µM

Q: And the “Cell Health Index” value (HL-60)?
A: 0.244

Q: And the “BMC10 any morphological effect or mortality” value (Danio rerio embryo [2])?
A: 42.5 µM

Q: What about the “LEL embryonic photomotor response 24 hpf” value (Danio rerio embryo [3]) of the same compound?
A: 100 µM

Q: How did the “LEL larval photomotor response dark phase 120 hpf” value (Danio rerio embryo [1]) turn out when `CCN(CC)Cc1cc(Nc2ccnc3cc(Cl)ccc23)ccc1O` [Amodiaquine] was run?
A: 11.1 µM

Q: And the “Cell Health Index” value (HL-60)?
A: 0.271

Q: And the “BMC10 any morphological effect or mortality” value (Danio rerio embryo [2])?
A: 4.04 µM

Q: What about the “LEL embryonic photomotor response 24 hpf” value (Danio rerio embryo [3]) of the same compound?
A: 1.23 µM

Q: What does the source list for `CC(C)[C@H](NC(=O)[C@H](CCCNC(=N)N)NC(=O)NC(Cc1ccccc1)C(=O)O)C(=O)NC(C=O)CCCNC(=N)N.Cl.Cl` (stereo not given in full) [Antipain]?
A: LEL larval photomotor response dark phase 120 hpf (Danio rerio embryo [1]): > 100 µM; Cell Health Index (HL-60): 0.154; BMC10 any morphological effect or mortality (Danio rerio embryo [2]): > 100 µM; LEL embryonic photomotor response 24 hpf (Danio rerio embryo [3]): > 100 µM

Q: `O=c1cc(-c2ccc(O)cc2)oc2cc(O)cc(O)c12` [Apigenin] was tested. Which “LEL larval photomotor response dark phase 120 hpf” value (Danio rerio embryo [1]) did it give?
A: > 100 µM

Q: And the “Cell Health Index” value (HL-60)?
A: 0.288

Q: And the “BMC10 any morphological effect or mortality” value (Danio rerio embryo [2])?
A: > 100 µM

Q: What about the “LEL embryonic photomotor response 24 hpf” value (Danio rerio embryo [3]) of the same compound?
A: > 100 µM

Q: Which “LEL larval photomotor response dark phase 120 hpf” value (Danio rerio embryo [1]) does the source give for `COc1cc(C[C@H]2C(=O)OC[C@@H]2Cc2ccc(OC)c(OC)c2)ccc1O` [Arctigenin] here?
A: 3.7 µM

Q: What about the “Cell Health Index” value (HL-60) of the same compound?
A: 0.617

Q: What about the “BMC10 any morphological effect or mortality” value (Danio rerio embryo [2]) of the same compound?
A: > 100 µM

Q: And the “LEL embryonic photomotor response 24 hpf” value (Danio rerio embryo [3])?
A: > 100 µM

Q: What does the source list for `O=C1NC(=O)c2c1c1c3ccccc3[nH]c1c1[nH]c3ccccc3c21` [Arcyriaflavin A]?
A: LEL larval photomotor response dark phase 120 hpf (Danio rerio embryo [1]): > 100 µM; Cell Health Index (HL-60): 0.393; BMC10 any morphological effect or mortality (Danio rerio embryo [2]): 1.1 µM; LEL embryonic photomotor response 24 hpf (Danio rerio embryo [3]): > 100 µM

Q: Which “LEL larval photomotor response dark phase 120 hpf” value (Danio rerio embryo [1]) does the source give for `CO[C@H]1O[C@@H]2O[C@@]3(C)CC[C@H]4[C@H](C)CC[C@@H]([C@H]1C)[C@@]24OO3` [Artemether] here?
A: 0.41 µM

Q: What about the “Cell Health Index” value (HL-60) of the same compound?
A: 0.289

Q: What about the “BMC10 any morphological effect or mortality” value (Danio rerio embryo [2]) of the same compound?
A: 3.55 µM

Q: And the “LEL embryonic photomotor response 24 hpf” value (Danio rerio embryo [3])?
A: 11.1 µM

Q: `C[C@@H]1CC[C@H]2[C@@H](C)C(=O)O[C@@H]3O[C@@]4(C)CC[C@@H]1[C@]32OO4` [Artemisinin] was tested. Which “LEL larval photomotor response dark phase 120 hpf” value (Danio rerio embryo [1]) did it give?
A: 3.7 µM

Q: And the “Cell Health Index” value (HL-60)?
A: 0.169

Q: And the “BMC10 any morphological effect or mortality” value (Danio rerio embryo [2])?
A: 39.4 µM

Q: And the “LEL embryonic photomotor response 24 hpf” value (Danio rerio embryo [3])?
A: 33.3 µM

Q: `C=C[C@@H]1C[C@]1(NC(=O)[C@@H]1C[C@H](Oc2ncc(OC)c3ccc(Cl)cc23)CN1C(=O)[C@@H](NC(=O)OC(C)(C)C)C(C)(C)C)C(=O)NS(=O)(=O)C1CC1` [Asunaprevir] was tested. Which “LEL larval photomotor response dark phase 120 hpf” value (Danio rerio embryo [1]) did it give?
A: 3.7 µM

Q: What about the “Cell Health Index” value (HL-60) of the same compound?
A: 0.536

Q: And the “BMC10 any morphological effect or mortality” value (Danio rerio embryo [2])?
A: > 100 µM

Q: What about the “LEL embryonic photomotor response 24 hpf” value (Danio rerio embryo [3]) of the same compound?
A: 11.1 µM

Q: With `CC(=O)O/N=C1/C(=C2\C(=O)Nc3cc(Br)ccc32)Nc2ccccc21` [BIO-Acetoxime] as the compound, how does the “LEL larval photomotor response dark phase 120 hpf” value (Danio rerio embryo [1]) read?
A: 33.3 µM

Q: And the “Cell Health Index” value (HL-60)?
A: 0.715

Q: What about the “BMC10 any morphological effect or mortality” value (Danio rerio embryo [2]) of the same compound?
A: > 100 µM

Q: And the “LEL embryonic photomotor response 24 hpf” value (Danio rerio embryo [3])?
A: > 100 µM

Q: With `O=c1cc(-c2ccccc2)oc2cc(O)c(O)c(O)c12` [Baicalein] as the compound, how does the “LEL larval photomotor response dark phase 120 hpf” value (Danio rerio embryo [1]) read?
A: > 100 µM

Q: And the “Cell Health Index” value (HL-60)?
A: 0.551

Q: What about the “BMC10 any morphological effect or mortality” value (Danio rerio embryo [2]) of the same compound?
A: > 100 µM

Q: And the “LEL embryonic photomotor response 24 hpf” value (Danio rerio embryo [3])?
A: > 100 µM

Q: What does the source list for `C=C(C)[C@@H]1CC[C@]2(C(=O)O)CC[C@]3(C)[C@H](CC[C@@H]4[C@@]5(C)CC[C@H](O)C(C)(C)[C@@H]5CC[C@]43C)[C@@H]12` [Betulinic acid]?
A: LEL larval photomotor response dark phase 120 hpf (Danio rerio embryo [1]): 100 µM; Cell Health Index (HL-60): 0.4; BMC10 any morphological effect or mortality (Danio rerio embryo [2]): > 100 µM; LEL embryonic photomotor response 24 hpf (Danio rerio embryo [3]): > 100 µM

Q: `C[C@H]1CO[C@@H]2Cn3cc(C(=O)NCc4ccc(F)cc4F)c(=O)c(O)c3C(=O)N12` [Cabotegravir] was tested. Which “LEL larval photomotor response dark phase 120 hpf” value (Danio rerio embryo [1]) did it give?
A: > 100 µM

Q: And the “Cell Health Index” value (HL-60)?
A: 0.321

Q: What about the “BMC10 any morphological effect or mortality” value (Danio rerio embryo [2]) of the same compound?
A: > 100 µM

Q: What about the “LEL embryonic photomotor response 24 hpf” value (Danio rerio embryo [3]) of the same compound?
A: > 100 µM

Q: Which results are given for `OC[C@H]1O[C@@H](O[C@@H]2OC=C[C@H]3[C@H](O)[C@@H]4O[C@]4(CO)[C@@H]23)[C@H](O)[C@@H](O)[C@@H]1O` [Catalpol]?
A: LEL larval photomotor response dark phase 120 hpf (Danio rerio embryo [1]): > 100 µM; Cell Health Index (HL-60): 0.184; BMC10 any morphological effect or mortality (Danio rerio embryo [2]): > 100 µM; LEL embryonic photomotor response 24 hpf (Danio rerio embryo [3]): > 100 µM

Q: For `O=C(OC[C@H]1O[C@@H](OC(=O)c2cc(O)c(O)c(OC(=O)c3cc(O)c(O)c(O)c3)c2)[C@H](OC(=O)c2cc(O)c(O)c(OC(=O)c3cc(O)c(O)c(O)c3)c2)[C@@H](OC(=O)c2cc(O)c(O)c(OC(=O)c3cc(O)c(O)c(O)c3)c2)[C@@H]1OC(=O)c1cc(O)c(O)c(OC(=O)c2cc(O)c(O)c(O)c2)c1)c1cc(O)c(O)c(OC(=O)c2cc(O)c(O)c(O)c2)c1` [Chinese Gallotannin], which “LEL larval photomotor response dark phase 120 hpf” value (Danio rerio embryo [1]) is on record?
A: > 100 µM

Q: What about the “Cell Health Index” value (HL-60) of the same compound?
A: 0.935

Q: What about the “BMC10 any morphological effect or mortality” value (Danio rerio embryo [2]) of the same compound?
A: 32.8 µM

Q: And the “LEL embryonic photomotor response 24 hpf” value (Danio rerio embryo [3])?
A: 100 µM

From the supplement of paper PMC11821682
